Where a SMILES comes first, the peptide text is derived from it.
Tests used:
H9c2 cells = assay: Hypoxia-reoxygenation injury, MTT assay, H9c2; assay type: cell-based, rat; conditions: H9c2, 1 µM peptide, 24 h hypoxia then 24 h normoxia, triplicates
Procedure: Cells were cultured with or without β-gB1 and its S-alkylated β-gB1, first under the hypoxic condition for 24 h and then at a normal oxygen environment for another 24 h. The cell viability under hypoxia-reoxygenation condition was assessed by the MTT assay.
(§1) Rat cardio-myoblast cells (H9c2) and […] neuron-like SH-SY5Y cells were purchased from ATCC and maintained in DMEM (Dulbecco’s modified eagle medium) medium supplemented with 10% fetal bovine serum (FBS), 10,000 U/mL of penicillin, and 10,000 µg/mL of streptomycin at 37 °C, 5% CO2.
Cells were seeded in a cell culture medium with/without β-gB1 and incubated at 37 °C, 5% CO2 overnight. The next day, the cells were locked inside a BD GasPak EZ anaerobe pouch system (BD Diagnostics, MD) and incubated at 37 °C for the next 48 h for the hypoxia condition. In addition, the cells were cultured under a normal oxygenated environment for the normoxic control. In hypoxia-reoxygenation experiments, the cells were incubated for 24 h in hypoxic conditions before being incubated for another 24 h under normoxia.
Phosphate-buffered saline (PBS) was used as a vehicle control.

LC3B = assay: Western blot of autophagy marker LC3B (LC3B-I, LC3B-II) in SH-SY5Y cells; assay type: cell-based, human; conditions: triplicates
Procedure: The LIR-containing proteins regulate autophagosome formation by interacting with the protein Atg8 (autophagy-related gene, Atg) family through their LIR sequences. […] The SH-SY5Y cells were cultured with or without β-gB1. The autophagy markers, Beclin-1 (BECN1), LC3B-I, and LC3B-II, were identified and quantified by western blot analysis. Beclin-1 plays an important role in regulating both autophagy and cell death, whereas LC3B is an important component of the autophagy pathway and the most widely used marker for autophagosomes. Two of the processed LC3B protein are LC3B-I and LC3B-II. LC3B-I is a truncated LC3B. In contrast, LC3B-II is a truncated and lipidated version of LC3B-I [28, 29]. Importantly, LC3B-II is centrally involved in the events of autophagosome membrane expansion and fusion.
as §1
(§2) A 25 µg equivalent quantity of each protein samples were resolved on a 10% and 15% SDS-PAGE gel accordingly and transferred onto a nitrocellulose membrane. Immunoblotting was performed using anti-protein antibodies against glyceraldehyde 3-phosphate dehydrogenase (GAPDH) (1:5000), LC3B (1:1500), Beclin-1 (1:1500), Caspase-3 (1:1500), and Caspase-9 (1:1500). Blots were developed with Clarity Max Western ECL blotting substrates. Protein bands were quantitated densitometrically using ImageJ software (ImageJ15.0b, Wayen Rasband, NIH, Bethesda, Maryland, USA), expressed relative to GAPDH, and normalized to the vehicle control cells. Statistical calculations and bar graphs were done using GraphPad Prism software (Version 6.01), and three individual experimental data sets were used for the calculation. Data are presented as means ± SD and compared by the Holm–Sidak multiple t-tests method. P-values pf less than 0.05 were considered significant.

SH-SY5Y cells [1] = assay type: cell-based, mouse; conditions: 48 h hypoxia, MTT
Procedure: Autophagy is an integrated stress response that clears the subcellular damages. Previous studies have shown that such damages can be induced by hypoxia and hypoxia-reoxygenation stress. Clearing subcellular damages would increase survivability. In traditional medicine, G. biloba is used as an herbal remedy for acute ischemic stroke and post-stroke recovery. To examine the effects of β-gB1 in hypoxia stress, we used cardio-myoblast H9c2 and SH-SY5Y cells. Cells were cultured with or without β-gB1 and incubated in a hypoxic environment for 48 h before the assessment of cell survival by the MTT assay. […] Importantly, when the concentration of β-gB1 was reduced tenfold from 10 to 1 µM, a 22–24% increase of survivability was still observed in H9c2 and SH-SY5Y cells (Figure 3A–D). […]
Cells were cultured in DMEM with or without β-gB1/S-alkylated β-gB1 (β-gB1Alk) for 48 h under normoxia, hypoxia, and hypoxia-reoxygenation conditions. […] The culture medium was then aspirated, and purple formazan crystals were dissolved in DMSO for colorimetric quantification at 570 nm using a microplate reader with a reference wavelength of 630 nm. […]

Escherichia coli = conditions: concentrations up to 100 µM; cited from earlier work
caspase-9 = assay: Western blot of caspase-9 in SH-SY5Y cells; assay type: cell-based, human; conditions: triplicates
Procedure: (§3) In contrast, the β-gB1-treated cells increased the expression of the LC3B-II isoform by 2.8-fold. […] In addition, the β-gB1-treated cells increased the BECN1 expression by 1.5-fold (Figure 2A,B).
as §1
as §2, with “P-values pf less than 0.05 were considered significant.” left out

caspase-3 = assay: Western blot of caspase-3 in SH-SY5Y cells; assay type: cell-based, human; conditions: triplicates
Procedure: as §3, §1
as §2, with “P-values pf less than 0.05 were considered significant.” left out

SH-SY5Y cells [2] = assay: LDH release cytotoxicity assay, SH-SY5Y; assay type: cell-based, mouse; conditions: 10 µM peptide, 48 h, 37 °C, LDH kit, 450 nm, triplicates
Description: In addition, β-gB1 is non-toxic to Vero and BHK (baby hamster kidney) cell lines based on an MTT assay. […] LDH is a cytoplasmic enzyme which is rapidly released into the cell culture medium upon plasma membrane damage and is widely used as a marker for cytotoxicity. Thus, an LDH-release assay measures the level of plasma membrane damage to a cell population.
as §1
An LDH release assay was performed using the CytoSelect™ LDH cytotoxicity assay kit (CBA-241, Cell Biolabs, Inc., San Diego, CA, USA). In brief, cells were cultured in DMEM with or without 10 µM of β-gB1 and S-alkylated β-gB1 (β-gB1Alk) for 48 h at 37 °C and 5% CO2. PBS was used for the vehicle control experiment. The culture medium was transferred and mixed with the LDH assay reagent in a ratio of 9:1. The reaction mixture was incubated at 37 °C for 2 h, and colorimetric quantification was performed using a 450 nm wavelength. The assay was performed in experimental triplicates, and statistical calculations and bar graphs were done using GraphPad Prism software (Version 6.01). […]

CC[C@H](C)[C@@H]1NC(=O)[C@@H]2CSSC[C@H](NC(=O)CNC(=O)[C@@H](NC(=O)[C@H](CCC(=O)O)NC(=O)[C@@H](N)Cc3ccc(O)cc3)[C@@H](C)O)C(=O)N[C@@H](CCCCN)C(=O)N[C@@H](CCCNC(=N)N)C(=O)N[C@H]3CSSC[C@@H](C(=O)O)NC(=O)[C@H](CSSC[C@H](NC3=O)C(=O)N[C@@H](Cc3ccc(O)cc3)C(=O)N[C@@H](CC(C)C)C(=O)N[C@@H](CC(=O)O)C(=O)N[C@@H](CCC(=O)O)C(=O)N[C@@H](Cc3ccc(O)cc3)C(=O)NCC(=O)N2)NC(=O)[C@H](CCCNC(=N)N)NC1=O [β-gB1] (HELM PEPTIDE1{Y.E.T.G.C.K.R.C.C.Y.L.D.E.Y.G.C.I.R.C.C}$PEPTIDE1,PEPTIDE1,5:R3-16:R3|PEPTIDE1,PEPTIDE1,8:R3-20:R3|PEPTIDE1,PEPTIDE1,9:R3-19:R3$$$V2.0; N-terminus and C-terminus assumed)
Increase of cell survivability under hypoxia-reoxygenation (H9c2 cells): 24%
Increase of LC3B-II/LC3B-I ratio compared to control (LC3B; western blot band intensity): about 3 fold
Increase of expression of LC3B-II isoform vs control (LC3B; western blot densitometry relative to GAPDH, normalized to vehicle control, mean): 2.8 fold
Expression of LC3B-I isoform vs control (LC3B; western blot densitometry relative to GAPDH, normalized to vehicle control): did not alter the expression
Increase of cell survivability under hypoxia (SH-SY5Y cells [1]; 1 µM peptide, range printed jointly for H9c2 and SH-SY5Y): 22–24%
Cytoprotective effect under hypoxia (in words) (SH-SY5Y cells [1]; 10 µM peptide, compared with 37% in H9c2): comparable cytoprotective effect
Antimicrobial effect (Escherichia coli): does not exhibit an antimicrobial effect
Expression of caspase-9 in treated cells (caspase-9): remained unchanged
Expression of caspase-3 in treated cells (caspase-3): remained unchanged
Cytotoxicity / cell-membrane damage by LDH release (SH-SY5Y cells [2]): no significant cytotoxicity or cell-membrane damaging effects

Source: article PMC6651024, “LIR Motif-Containing Hyperdisulfide β-Ginkgotide is Cytoprotective, Adaptogenic, and Scaffold-Ready” (Molecules, 2019)
